The text below walks through data of patent US11000033B2, “Ketone or oxime compound, and herbicide” (NISSAN CHEMICAL CORPORATION, priority 2014, dated 2021).

Broadly, the melting point is the temperature of the solid-liquid transition.

The subject of series [1] is Chenopodium album. The experiment in a line: Test Example 4: herbicidal effect by soil treatment (symbol O). The format is in vivo. The note with it: for Herbicidal effect grade, O: Chenopodium album / O (Chenopodium album) herbicidal effect grade: application herbicide amount 320 g/ha; for O: Chenopodium album, herbicidal effect grade: 320 g/ha. The method in brief: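 Seeds were sown in sterilized diluvial soil, covered with about 1.5 cm of soil, and the soil surface was sprayed with a water-diluted emulsion of the compound at a predetermined rate. Plants grew in a greenhouse at 25° C. to 30° C.; effects were scored visually 3 weeks after application.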

Turning to `CC(CC1CC(O)=C(c2c(C)cc(Br)cc2C)C1=O)=NOCC(=O)N(C)C` (mixture of isomers) [9-029], the “Herbicidal effect grade, O: Chenopodium album” value (shortened to “Herbicidal effect grade, O”) in series [1] was 0 (Herbicidal ratio of 5% or lower (almost no effect)).
In the case of `CON=C(C)CC1CC(OC)=C(c2c(C)cc(C)cc2C)C1=O` (stereo not drawn) [1-001, 2-mesityl-3-methoxy-5-{2-(methoxyimino)propyl}cyclopent-2-enone], the melting point was in the range of 92 to 98 °C. The “O (Chenopodium album) herbicidal effect grade” value in series [1] is recorded as 0 (Herbicidal ratio of 5% or lower (almost no effect)).
In the same order, the values of `CON=C(C)CC1CC(O)=C(c2c(C)cc(C)cc2C)C1=O` (stereo not drawn) [1-002, 3-hydroxy-2-mesityl-5-{2-(methoxyimino)propyl}cyclopent-2-enone] are 170 to 173 °C and 5 (Herbicidal ratio of 90% or more (almost completely withered)).
In the case of `CCON=C(C)CC1CC(O)=C(c2c(C)cc(C)cc2C)C1=O` (stereo not drawn) [1-003], the melting point fell in the range of 135 to 140 °C.
With `CC(CC1CC(O)=C(c2c(C)cc(C)cc2C)C1=O)=NOCC(F)(F)F` (stereo not drawn) [1-028], the melting point lay within 172 to 174 °C.
Take `CON=C(C)CC1CC(OC(=O)C(C)(C)OC(C)=O)=C(c2c(C)cc(C)cc2C)C1=O` (stereo not drawn) [1-034]: the “O (Chenopodium album) herbicidal effect grade” value in series [1] was 5 (Herbicidal ratio of 90% or more (almost completely withered)).
Take `COCCOC1=C(c2c(C)cc(C)cc2C)C(=O)C(CC(C)=NOC)C1` (stereo not drawn) [1-037]: in series [1], the “O (Chenopodium album) herbicidal effect grade” value was 0 (Herbicidal ratio of 5% or lower (almost no effect)).
In the case of `CCC(CC1CC(O)=C(c2c(C)cc(C)cc2C)C1=O)=NOC` (stereo not drawn) [1-038], the melting point was in the range of 147 to 149 °C. Besides, in series [1], the “O (Chenopodium album) herbicidal effect grade” value is 0 (Herbicidal ratio of 5% or lower (almost no effect)).
As to `CON=C(C)CC1CC(OC(=O)C(C)Cl)=C(c2c(C)cc(C)cc2C)C1=O` (stereo not drawn) [1-042], the “O (Chenopodium album) herbicidal effect grade” value in series [1] is reported as 0 (Herbicidal ratio of 5% or lower (almost no effect)).
As to `CON=C(CC1CC(O)=C(c2c(C)cc(C)cc2C)C1=O)c1ccccc1` (stereo not drawn) [1-047], the “O (Chenopodium album) herbicidal effect grade” value in series [1] is on record as 0 (Herbicidal ratio of 5% or lower (almost no effect)).
On to `CON=C(CC1CC(O)=C(c2c(C)cc(C)cc2C)C1=O)C(C)C` (stereo not drawn) [1-048], for which the “O (Chenopodium album) herbicidal effect grade” value in series [1] was 0 (Herbicidal ratio of 5% or lower (almost no effect)).
In the case of `CON=CCC1CC(O)=C(c2c(C)cc(C)cc2C)C1=O` (stereo not drawn) [1-050], the melting point was 96 to 108 °C. In addition, the “O (Chenopodium album) herbicidal effect grade” value in series [1] was 0 (Herbicidal ratio of 5% or lower (almost no effect)).
For the molecule `CON=C(C)CC1CC(OC(=O)C(C)(C)Oc2ccc(Cl)cc2)=C(c2c(C)cc(C)cc2C)C1=O` (stereo not drawn) [1-051], the “O (Chenopodium album) herbicidal effect grade” value in series [1] is 0 (Herbicidal ratio of 5% or lower (almost no effect)).
Regarding `CC(CC1CC(O)=C(c2c(C)cc(C)cc2C)C1=O)=NOC(C)C` (stereo not drawn) [1-052], the melting point was 93 to 95 °C. In series [1], the “O (Chenopodium album) herbicidal effect grade” value is listed as 0 (Herbicidal ratio of 5% or lower (almost no effect)).
In the same order, the values of `CC(CC1CC(O)=C(c2c(C)cc(C)cc2C)C1=O)=NOC(C)(C)C` (stereo not drawn) [1-053] are 145 to 147 °C and 0 (Herbicidal ratio of 5% or lower (almost no effect)).
Take `CCCCCCCON=C(C)CC1CC(O)=C(c2c(C)cc(C)cc2C)C1=O` (stereo not drawn) [1-054]: in series [1], the “O (Chenopodium album) herbicidal effect grade” value is reported as 0 (Herbicidal ratio of 5% or lower (almost no effect)).
Still for that read-out and setting: the same measure for `CC(CC1CC(O)=C(c2c(C)cc(C)cc2C)C1=O)=NOCC[Si](C)(C)C` (stereo not drawn) [1-055]: 0 (Herbicidal ratio of 5% or lower (almost no effect)).
`CC(CC1CC(O)=C(c2c(C)cc(C)cc2C)C1=O)=NOc1ccccc1` (stereo not drawn) [1-057] had a melting point of 149 to 151 °C.
With `CC(CC1CC(O)=C(c2c(C)cc(C)cc2C)C1=O)=NO` (stereo not drawn) [1-058], the melting point lay within 95 to 98 °C. In series [1], the “O (Chenopodium album) herbicidal effect grade” value is 0 (Herbicidal ratio of 5% or lower (almost no effect)).
As to `CON=C(CC1CC(O)=C(c2c(C)cc(C)cc2C)C1=O)C(C)(C)C` (stereo not drawn) [1-059], the melting point was 163 to 164 °C.
Regarding `CON=C(C)CC1CC(OC(=O)C(C)Oc2ccccc2)=C(c2c(C)cc(C)cc2C)C1=O` (stereo not drawn) [1-060], the “O (Chenopodium album) herbicidal effect grade” value in series [1] is 0 (Herbicidal ratio of 5% or lower (almost no effect)).
Consider `CCCC(CC1CC(O)=C(c2c(C)cc(C)cc2C)C1=O)=NOC` (stereo not drawn) [1-062], for which the melting point is 134 to 137 °C. Moreover, the “O (Chenopodium album) herbicidal effect grade” value in series [1] is 0 (Herbicidal ratio of 5% or lower (almost no effect)).
For `CCC(C)C(CC1CC(O)=C(c2c(C)cc(C)cc2C)C1=O)=NOC` (stereo not drawn) [1-066], in that order: 154 to 156 °C and 0 (Herbicidal ratio of 5% or lower (almost no effect)).
As to `CON=C(CC1CC1)CC1CC(O)=C(c2c(C)cc(C)cc2C)C1=O` (stereo not drawn) [1-070], in series [1], the “O (Chenopodium album) herbicidal effect grade” value is given as 0 (Herbicidal ratio of 5% or lower (almost no effect)).
With `CON=C(C)CC1CC(OC(=O)COc2cccc(C#N)c2)=C(c2c(C)cc(C)cc2C)C1=O` (stereo not drawn) [1-074], in series [1], the “O (Chenopodium album) herbicidal effect grade” value is on record as 0 (Herbicidal ratio of 5% or lower (almost no effect)).
As to `CON=C(C)CC1CC(OC(=O)COc2ccc(Cl)cc2Cl)=C(c2c(C)cc(C)cc2C)C1=O` (stereo not drawn) [1-075], the “O (Chenopodium album) herbicidal effect grade” value in series [1] is reported as 0 (Herbicidal ratio of 5% or lower (almost no effect)).
Consider `CON=C(C)CC1CC(OC(=O)COc2ccc(C=O)cc2)=C(c2c(C)cc(C)cc2C)C1=O` (stereo not drawn) [1-079], for which the “O: Chenopodium album, herbicidal effect grade” value in series [1] was 0 (Herbicidal ratio of 5% or lower (almost no effect)).
Still for that read-out and setting: the same measure for `CON=C(C)CC1CC(OC(=O)COc2ccc(Br)cc2)=C(c2c(C)cc(C)cc2C)C1=O` (stereo not drawn) [1-081]: 0 (Herbicidal ratio of 5% or lower (almost no effect)); for `CON=C(C)CC1CC(OC(=O)COc2ccc3ccccc3c2)=C(c2c(C)cc(C)cc2C)C1=O` (stereo not drawn) [1-083]: 0 (Herbicidal ratio of 5% or lower (almost no effect)); for `CON=C(CC1CC(O)=C(c2c(C)cc(C)cc2C)C1=O)C1CCCCC1` (stereo not drawn) [1-085]: 0 (Herbicidal ratio of 5% or lower (almost no effect)).
On the same count and under the same terms, the result for `C=CC(CC1CC(O)=C(c2c(C)cc(C)cc2C)C1=O)=NOC` (stereo not drawn) [1-086] reads 0 (Herbicidal ratio of 5% or lower (almost no effect)); that for `CON=C(C)CC1CC(OC(=O)C2=CCCC2)=C(c2c(C)cc(C)cc2C)C1=O` (stereo not drawn) [1-088], 0 (Herbicidal ratio of 5% or lower (almost no effect)); that for `CON=C(C)CC1CC(OC(=O)C2=C(Br)CCC2)=C(c2c(C)cc(C)cc2C)C1=O` (stereo not drawn) [1-089], 0 (Herbicidal ratio of 5% or lower (almost no effect)).
The same measure, in the same setting: the same measure for `CCCC=CC(=O)OC1=C(c2c(C)cc(C)cc2C)C(=O)C(CC(C)=NOC)C1` (stereo not drawn) [1-090]: 0 (Herbicidal ratio of 5% or lower (almost no effect)).
Take `COCC(=O)OC1=C(c2c(C)cc(C)cc2C)C(=O)C(CC(C)=NOC)C1` (stereo not drawn) [1-093]: the “O: Chenopodium album, herbicidal effect grade” value in series [1] is reported as 0 (Herbicidal ratio of 5% or lower (almost no effect)).
The same measure, in the same setting: the same measure for `CON=C(C)CC1CC(OC(=O)COCc2ccccc2)=C(c2c(C)cc(C)cc2C)C1=O` (stereo not drawn) [1-094]: 0 (Herbicidal ratio of 5% or lower (almost no effect)); for `CC#CC(=O)OC1=C(c2c(C)cc(C)cc2C)C(=O)C(CC(C)=NOC)C1` (stereo not drawn) [1-095]: 0 (Herbicidal ratio of 5% or lower (almost no effect)).
In the case of `CC(=O)CC1CC(O)=C(c2c(C)cc(-c3ccc(OC(F)(F)F)cc3)cc2C)C1=O` (stereo not drawn) [7-016], in series [1], the “Herbicidal effect grade, O” value is reported as 0 (Herbicidal ratio of 5% or lower (almost no effect)).
The same measure, in the same setting: the result for `CC(=O)CC1CC(O)=C(c2c(C)cc(-c3ncccn3)cc2C)C1=O` (stereo not drawn) [7-017] reads 0 (Herbicidal ratio of 5% or lower (almost no effect)); that for `CON=C(CC1CC(O)=C(c2c(C)cc(Br)cc2C)C1=O)C1CC1` (stereo not drawn) [9-002], 0 (Herbicidal ratio of 5% or lower (almost no effect)); that for `CC#Cc1cc(C)c(C2=C(OC(=O)COc3ccccc3)CC(CC(=NOC)C(C)C)C2=O)c(C)c1` (stereo not drawn) [9-003], 0 (Herbicidal ratio of 5% or lower (almost no effect)).
`CON=C(CC1CC(O)=C(c2c(C)cc(-n3cc(Cl)cn3)cc2C)C1=O)C(C)C` (stereo not drawn) [9-004]: the “Herbicidal effect grade, O” value in series [1] was 0 (Herbicidal ratio of 5% or lower (almost no effect)).
